Experimental data taken from patent US10138207B2, “Benzomorphan analogs and the use thereof” (priority 2012, dated 2018).
Read-outs that look alike come from different tables or passages of the source.

Experiments:
μ-opioid receptor [1] = target: T1, μ-opioid receptor (Homo sapiens, UniProt P35372); experiment: μ-opioid receptor [35S]GTPγS functional assay, U-2 OS cells; assay type: biochemical; set-up: expressed in transfected cells; host or cells: U-2 OS; conditions: for Emax: read-out: GTPγS μ Emax
κ opioid receptor [2] = target: T2, κ opioid receptor (Homo sapiens, UniProt P41145); experiment: κ-opioid receptor [35S]GTPγS functional assay, HEK-293 or CHO cells; assay type: biochemical; set-up: expressed in transfected cells; host or cells: U-2 OS (in-house membranes); conditions: for Emax: relative to U69,593
Protocol: Membranes from recombinant HEK-293 cells, CHO or U-2 OS cells expressing the recombinant human κ opioid receptor (κ) were prepared by lysing cells in ice cold hypotonic buffer (2.5 mM MgCl2, 50 mM HEPES, pH 7.4) (10 mL/10 cm dish) followed by homogenization with a tissue grinder/Teflon pestle. Membranes from a cell line naturally expressing kappa opioid receptors can also be used. Membranes were collected by centrifugation at 30,000×g for 15 min at 4° C. and pellets were resuspended in hypotonic buffer to a final concentration of 1-3 mg/mL. Protein concentrations were determined using the BioRad protein assay reagent with bovine serum albumen as standard. Aliquots of κ receptor membranes were stored at −80° C.
Plates were incubated for 30 min at a temperature of about 25° C. with shaking.

κ opioid receptor [3] = target: T2, κ opioid receptor; experiment: biochemical; assay type: binding; set-up: expressed in transfected cells; host or cells: HEK 293 (in-house membrane prep); conditions: HEK-293 or CHO cells
μ-opioid receptor [4] = target: T1, μ-opioid receptor; experiment: μ-opioid receptor [35S]GTPγS functional assay, HEK-293 or CHO cells; conditions: for Emax: read-out: GTPγS μ Emax
[5] = U-2 OS cells, read-out: GTPγS μ EC50
[6] = U-2 OS cells, relative to DAMGO
[7] = HEK-293 or CHO cells, bound in μM, read-out: GTPγS κ EC50

T1 sequence (P35372 whole entry, species assumed): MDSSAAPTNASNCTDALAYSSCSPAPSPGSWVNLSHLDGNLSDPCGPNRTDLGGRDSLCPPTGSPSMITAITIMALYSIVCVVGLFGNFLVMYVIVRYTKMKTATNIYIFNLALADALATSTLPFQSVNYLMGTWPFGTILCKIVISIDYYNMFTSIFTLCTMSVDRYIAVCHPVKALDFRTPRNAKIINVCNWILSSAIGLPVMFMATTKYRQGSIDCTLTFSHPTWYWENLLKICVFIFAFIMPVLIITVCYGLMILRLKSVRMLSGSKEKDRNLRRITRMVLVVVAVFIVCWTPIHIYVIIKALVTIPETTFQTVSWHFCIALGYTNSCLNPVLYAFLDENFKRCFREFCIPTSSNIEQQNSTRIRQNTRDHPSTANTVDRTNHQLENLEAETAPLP
T2 sequence (P41145 whole entry): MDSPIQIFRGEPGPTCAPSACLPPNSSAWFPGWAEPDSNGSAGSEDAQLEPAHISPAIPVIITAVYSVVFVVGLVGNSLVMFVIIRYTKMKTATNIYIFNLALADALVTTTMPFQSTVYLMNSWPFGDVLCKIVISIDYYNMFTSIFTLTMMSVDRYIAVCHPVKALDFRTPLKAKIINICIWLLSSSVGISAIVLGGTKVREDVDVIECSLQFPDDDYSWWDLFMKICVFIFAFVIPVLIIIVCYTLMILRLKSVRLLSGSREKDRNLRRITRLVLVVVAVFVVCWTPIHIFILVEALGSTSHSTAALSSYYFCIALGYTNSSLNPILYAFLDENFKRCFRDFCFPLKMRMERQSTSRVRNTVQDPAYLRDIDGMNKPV

SMILES	EC50 (μ-opioid receptor [1]; [5])	GTPγS μ Emax (μ-opioid receptor [1]; [6])	EC50 (κ opioid receptor [2]; [7])	Emax (κ opioid receptor [2]; HEK-293 or CHO cells)	Ki (κ opioid receptor [3])	EC50 (μ-opioid receptor [4])	Emax (μ-opioid receptor [4])	Emax (μ-opioid receptor [1]; [6])	EC50 (μ-opioid receptor [1]; GTPγS μ EC50, U-2 OS cells)	EC50 (κ opioid receptor [2])	EC50 (κ opioid receptor [2]; HEK-293 or CHO cells, read-out: GTPγS κ EC50)	EC50 (μ-opioid receptor [1]; U-2 OS cells, bound in μM, read-out: GTPγS μ EC50)
CN1CC[C@@]2(C)c3cc(O)ccc3C[C@@H]1[C@@H]2NCC1CCN(C(=O)OC(C)(C)C)CC1 [Compound 30, tert-butyl 4-((((2R,6S,11R)-8-hydroxy-3,6-dimethyl-1,2,3,4,5,6-hexahydro-2,6-methanobenzo[d]azocin-11-yl)amino)methyl)piperidine-1-carboxylate]	0.0336 ± 0.00817 µM	91.70 ± 4.33%	> 20 µM	0.33 ± 0.67%	7.66 ± 1.96 nM	270 ± 33.9 nM	49.7 ± 3.67%					
CN1CC[C@@]2(C)c3cc(O)ccc3C[C@@H]1[C@@H]2N(C)CC1CCN(C(=O)OC(C)(C)C)CC1 [Compound 31, tert-butyl 4-((((2R,6S,11R)-8-hydroxy-3,6-dimethyl-1,2,3,4,5,6-hexahydro-2,6-methanobenzo[d]azocin-11-yl)(methyl)amino)methyl)piperidine-1-carboxylate]	0.00041 ± 0.00038 µM		> 20 µM	1%	0.34 ± 0.09 nM	12.3 ± 0.95 nM	61 ± 3%	94.3 ± 3.18%				
CN1CC[C@]2(C)c3cc(O)ccc3C[C@@H]1[C@@H]2N(C)C(=O)c1ccccc1 [Compound 39, N-((2R,6R,11R)-8-hydroxy-3,6-dimethyl-1,2,3,4,5,6-hexahydro-2,6-methanobenzo[d]azocin-11-yl)-N-methylbenzamide]	0.0183 ± 0.00122 µM		> 20 µM	-1%	82 ± 10.4 nM	321 ± 22.2 nM	89.8 ± 5.39%	101 ± 3.76%				
COc1ccc2c(c1)[C@@]1(C)CCN(C)C(C2)[C@@H]1CNC(=O)Cc1ccc(Cl)c(Cl)c1 [Compound 75, 2-(3,4-dichlorophenyl)-N-(((6S,11S)-8-methoxy-3,6-dimethyl-1,2,3,4,5,6-hexahydro-2,6-methanobenzo[d]azocin-11-yl)methyl)acetamide]				0.33 ± 0.67%	185 ± 51.3 nM	62.3 ± 13.7 nM	112 ± 2.4%	104 ± 2.67%	0.0127 ± 0.00152 µM	> 20 µM		
CN(C(=O)/C=C/c1ccoc1)[C@@H]1[C@H]2Cc3ccc(O)cc3[C@@]1(C)CCN2CC1CC1 [Compound 77, (E)-N-((2R,6R,11S)-3-(cyclopropylmethyl)-8-hydroxy-6-methyl-1,2,3,4,5,6-hexahydro-2,6-methanobenzo[d]azocin-11-yl)-3-(furan-3-yl)-N-methylacrylamide]				-1%	4.3 ± 0.91 nM	144 ± 11 nM	56.5 ± 2.02%	77.7 ± 0.88%	0.029 ± 0.00086 µM	> 20 µM		
CN(C(=O)Nc1ccc(C#N)cc1)[C@H]1C2Cc3ccc(O)cc3[C@@]1(C)CCN2CC1CC1 [Compound 80, 3-(4-cyanophenyl)-1-((6R,11R)-3-(cyclopropylmethyl)-8-hydroxy-6-methyl-1,2,3,4,5,6-hexahydro-2,6-methanobenzo[d]azocin-11-yl)-1-methylurea]	0.0002 ± 1.3e-05 µM		> 20 µM		1.19 ± 0.32 nM	216 ± 38.7 nM	92.4 ± 3.23%	113 ± 3.53%				
CN(C(=O)Nc1ccc(C#N)cc1)[C@H]1C2Cc3ccc(O)cc3[C@@]1(C)CCN2CC1CCC1 [Compound 88, 3-(4-cyanophenyl)-1-((6R,11R)-3-(cyclobutylmethyl)-8-hydroxy-6-methyl-1,2,3,4,5,6-hexahydro-2,6-methanobenzo[d]azocin-11-yl)-1-methylurea]	0.00167 ± 0.00016 µM			18.5 ± 2.84%	4.74 ± 1.55 nM	7.58 ± 1.06 nM	74.7 ± 1.86%	85.7 ± 2.33%			0.0247 ± 0.00535 µM	
CN(C(=O)Nc1ccc(C#N)cc1)[C@H]1C2Cc3ccc(O)cc3[C@@]1(C)CCN2Cc1cccc(F)c1F [Compound 89, 3-(4-cyanophenyl)-1-((6R,11R)-3-(2,3-difluorobenzyl)-8-hydroxy-6-methyl-1,2,3,4,5,6-hexahydro-2,6-methanobenzo[d]azocin-11-yl)-1-methylurea]			> 20 µM		9.2 ± 0.9 nM	> 20000 nM		1.17 ± 1.01%				> 20 µM
